# Tests used:
# CDK7 = assay: IMAP-based CDK7 counter screen; type: biochemical; conditions: concentrations up to 50 µM
# Source text: (§1) It was also gratifying that, in general, our novel cell active PKD1 inhibitors appeared to be less promiscuous than PKD1 inhibitors having minimal to no cellular PKD1 inhibitory activity (Table 1). For example, CIDs 755673 and 1893668 display additional confirmed activity in six and seven, respectively, PubChem bioassays while CID 2011756 has confirmed activity in only one additional PubChem bioassay. […] In contrast, the remaining chemotypes registered as confirmed actives in 2–43 additional bioassays (Table 1). Additional chemical similarity searching, focusing on our four novel cell-active PKD1 inhibitory chemotypes, using MetaDrug also supports a comparative lack of promiscuity of these compounds.
# [1] = target: T1, endogenous PKD1 (Ser916 phosphorylation) in LNCaP prostate cancer cells (Homo sapiens, UniProt Q15139); assay: Western blot of PMA-induced phospho-Ser916-PKD1 in LNCaP cells; type: cell-based
# T1 construct: phosphorylation of endogenously expressed PKD1 Ser^916; endogenous in cells; host or cells: LNCaP prostate cancer cells
# T1 sequence (Q15139 1-912): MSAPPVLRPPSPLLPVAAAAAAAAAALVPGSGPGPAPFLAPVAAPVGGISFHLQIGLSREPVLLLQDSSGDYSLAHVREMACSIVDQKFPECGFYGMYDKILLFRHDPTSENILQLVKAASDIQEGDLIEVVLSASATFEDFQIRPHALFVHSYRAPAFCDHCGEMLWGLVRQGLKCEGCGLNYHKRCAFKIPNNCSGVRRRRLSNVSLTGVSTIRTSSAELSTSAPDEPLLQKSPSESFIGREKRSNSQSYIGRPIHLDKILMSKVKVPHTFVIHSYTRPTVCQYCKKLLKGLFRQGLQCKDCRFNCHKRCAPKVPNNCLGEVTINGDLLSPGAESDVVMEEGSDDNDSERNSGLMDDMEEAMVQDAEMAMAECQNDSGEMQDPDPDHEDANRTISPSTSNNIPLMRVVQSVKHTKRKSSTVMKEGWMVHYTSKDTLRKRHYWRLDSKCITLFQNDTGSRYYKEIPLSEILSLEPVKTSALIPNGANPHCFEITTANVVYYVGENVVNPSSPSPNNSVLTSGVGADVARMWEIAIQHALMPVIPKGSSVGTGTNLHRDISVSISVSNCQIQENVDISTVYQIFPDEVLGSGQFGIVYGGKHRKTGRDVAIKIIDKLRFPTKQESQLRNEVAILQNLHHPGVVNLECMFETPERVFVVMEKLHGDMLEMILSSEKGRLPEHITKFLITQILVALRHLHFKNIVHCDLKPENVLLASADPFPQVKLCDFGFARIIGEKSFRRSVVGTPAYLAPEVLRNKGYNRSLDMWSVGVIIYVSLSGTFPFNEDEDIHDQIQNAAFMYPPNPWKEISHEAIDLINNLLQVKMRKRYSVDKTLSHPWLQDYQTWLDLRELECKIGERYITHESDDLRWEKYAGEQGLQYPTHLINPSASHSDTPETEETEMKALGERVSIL
# Description: Briefly, prostate cancer cells (LNCaP) were exposed to test compounds. Cells were lysed in buffer (200 mM Tris-HCl, pH 7.4, 100 µM 4-(2-aminoethyl) benzenesulfonyl fluoride, 1 mM EGTA, and 1% Triton X-100) and cell lysates were subjected to SDS-PAGE then electrotransferred to nitrocellulose membranes. Membranes were blocked with 5% nonfat milk in Tris-buffered saline. Membranes were probed with a primary antibody then followed by a secondary anti-mouse or anti-rabbit secondary antibody conjugated to horseradish peroxidase (1∶1000, Bio-Rad). Bands were visualized by the enhanced chemiluminescence Western blotting detection system (Amersham Biosciences). The primary antibodies included p-S916-PKD1 antibody (Millipore) and GAPDH (Enzo Life Sciences, Plymouth Meeting, PA).
# […] Whole cell lysates were immunoblotted for phosphorylated Ser^916-PKD1 with GAPDH serving as a loading control.
# recombinant human PKD1 [2] = target: T2, recombinant human PKD1 (Homo sapiens, UniProt Q15139); assay: ATP competition studies (radiometric PKD1 assay, Michaelis-Menten/Lineweaver-Burk); type: biochemical; conditions: PKD1, ATP 12.5–1000 µM
# T2 construct: His; purchased Millipore (Billerica, MA)
# T2 sequence (Q15139 1-912): T1 sequence (Q15139 1-912)
# Description: For ATP competition studies, recombinant human PKD1 (1 ng/µL) and Syntide-2 substrate peptide (200 ng/µl) in kinase buffer were incubated with a concentration range of test compound. Kinase reactions were initiated with a concentration range of cold ATP (12.5–1000 µM) supplemented with 1.0 µCi γ-^33P-ATP (Perkin Elmer) and processed as described above. Enzyme inhibition was analyzed and visualized using the Michaelis-Menten and Lineweaver-Burk functions of GraphPad Prism 5.0.
# AKT = assay: IMAP-based AKT counter screen; type: biochemical; conditions: concentrations up to 50 µM
# Source text: as §1
# recombinant human PKD1 [3] = target: T2, recombinant human PKD1; assay: In vitro radiometric PKD1 kinase assay; type: biochemical; conditions: radiometric PKD1 kinase assay; mean ± range or SD of 2–4 independent experiments; read-out: In vitro PKD1 IC50
# Description: Kinase reactions were initiated with the addition of ATP (50 µM ATP, 1.0 µCi γ-^33P-ATP; Perkin Elmer, Boston, MA) and incubated for 20 min at 30°C. Twenty-five µL of the reaction was spotted onto Whatman P81 filter paper (Whatman Inc., Clifton, NJ). Filter papers were then washed three times in 0.5% phosphoric acid, air-dried, and counted using an LS6500 multi-purpose scintillation counter (Beckman Coulter, Fullerton, CA). IC50 determinations were performed using GraphPad Prism software 5.0. Radiometric PKD2 and PKD3 in vitro kinase assays were performed as previously described.
# PLK1 = assay: IMAP-based PLK1 counter screen; type: biochemical; conditions: concentrations up to 50 µM
# Source text: as §1
structure (smiles),measurement,setting,value
"O=C(Nc1ccc(CN2CCOCC2)cc1)c1ccc(-c2cccc(Cl)c2)o1 [CID 2011756, 5-(3-chlorophenyl)-N-[4-(morpholin-4-ylmethyl)phenyl]furan-2-carboxamide]",CDK7 kinase inhibition,CDK7,no kinase inhibition
same,EC50,"[1]; LNCaP cells, PMA stimulation, n = 3, read-out: Cellular EC50 (phospho-Ser916-PKD1)",10 ± 0.7 µM
same,Concentration dependence of inhibition of PMA-induced endogenous PKD1 activity,"[1]; LNCaP cells, Western blot",concentration-dependent inhibition
same,inhibition at 50 µM,"[1]; LNCaP, read-out: Inhibition of phosphorylation of Ser916-PKD1",> 50%
same,Mechanism of Action (with respect to ATP),recombinant human PKD1 [2],ATP competitive
same,AKT kinase inhibition,AKT,no kinase inhibition
same,IC50,recombinant human PKD1 [3],3.2 ± 0.1 µM
same,PLK1 kinase inhibition,PLK1,no kinase inhibition
